Article PMC11161644, “An effective and rapidly degradable disinfectant from disinfection byproducts” (Nature Communications, 2024)
Where “and” joins values, the source holds several entries; their conditions need not be identical. Equal values may be shown once.

Tests used:
P. dumerilii embryos = test: Developmental toxicity (EC50) of OH-DCQ and 2,6-DCQ to P. dumerilii embryos; type: in vivo, Platynereis dumerilii
Method: The third aliquot was subjected to the developmental toxicity assay with P. dumerilii embryos. The aliquot was dissolved in 10 mL of seawater and adjusted to pH 8.2. The embryos at 12-h postfertilization were exposed to different levels of OH-DCQ for 12 h. By 24-h postfertilization, normally and abnormally developed embryos were counted using an inverted stereomicroscope. Based on the percentage of normally developed embryos, an exposure−response curve was generated. The median effective concentration (EC50) was determined using SigmaPlot 12 software. The developmental toxicity of 2,6-DCQ was also evaluated for comparison. The toxicity bioassay was conducted in duplicate.

[1] = UPLC/ESI-tqMS time profile of 2,6-DCQ and its degradation products in simulated seawater (pH 8.2, darkness); OH-DCQ formation; conditions: for Concentration: 2,6-DCQ degradation / OH-DCQ formation; for Peak area: 2,6-DCQ degradation
Method: A Waters UPLC system coupled with ESI-tqMS was used to characterize the degradation products of 2,6-DCQ. The UPLC separation was performed using an HSS T3 column (100 × 2.1 mm, 1.8 μm particle size, Waters) with a column temperature of 35 °C. A gradient eluent of methanol–water was applied at a flow rate of 0.4 mL min^−1. The gradient program was set as follows: methanol/water (v/v) ratio changed linearly from 5/95 to 90/10 in the first 8 min and then returned to 5/95 during 8.0‒8.1 min, which was held for 2.9 min for re-equilibration. The ESI-tqMS was set as follows: ESI negative mode, capillary voltage 2.8 kV, cone voltage 10–50 V (depending on analytes), cone gas flow 50 L h^−1, source temperature 120 °C, desolvation temperature 400 °C, desolvation gas flow 800 L h^−1, collision energy 15–50 eV (depending on analytes), collision gas (argon) flow 0.25 mL min^−1, and mass resolution 15 (1-unit resolution).
The degradation of 2,6-DCQ in seawater was simulated by adding 10 mg L^−1 2,6-DCQ to 50 mL ultrapure water, which was adjusted to pH 8.2 with 5 mM sodium carbonate (to simulate the alkalinity in seawater and also to be compatible with the subsequent UPLC/ESI-tqMS analysis). The sample was kept in darkness for 0–24 h, during which the pH of the sample was maintained at 8.1 ± 0.1. At a designated reaction time, 7.5 μL of the sample was injected into the UPLC system. For a nonhalogenated degradation product, the selected ion recording (SIR) mode with a dwell time of 0.05 s was adopted to obtain the retention time. For halogenated degradation products, the multiple reaction monitoring mode with a dwell time of 0.05 s was used to obtain the retention time and the isotopic abundance ratio. To investigate the time-dependent profile of 2,6-DCQ and its degradation products, the peak area of each compound was determined using the SIR mode in the UPLC/ESI-tqMS analysis.
The second aliquot was subjected to analysis of total organic halogen to quantify the collected OH-DCQ. The determination of total organic halogen was based on Standard Method 5320B[52], with modifications of using off-line ion chromatography for halide detection. Briefly, the aliquot was dissolved in 100 mL ultrapure water and acidified to pH 2 with concentrated nitric acid[52] prior to adsorption onto pre-packed activated carbon columns (Mitsubishi). A three-channel adsorption module (TXA03C, Mitsubishi Chemical Analytech) was used for adsorption. An AQF-100 automatic quick furnace (Mitsubishi Chemical Analytech) was used for pyrolysis. During the pyrolysis process, the chlorine atoms in OH-DCQ were converted to chloride. The chloride ion concentration was determined using an ICS-3000 ion chromatography system (Dionex). 2,6-DCQ was used as a standard compound for measuring total organic halogen to determine the recovery of the analysis. The total organic halogen analysis was conducted in duplicate.

Structure (SMILES): O=C1C=C(Cl)C(=O)C(Cl)=C1O [OH-DCQ, 3-hydroxyl-2,6-dichloro-1,4-benzoquinone]
- Normal development (P. dumerilii embryos; OH-DCQ concentration 15 mg L-1): 92.9293% and 86.7257%
- Normal development (P. dumerilii embryos; OH-DCQ concentration 25 mg L-1): 83.1776% and 81.579%
- Normal development (P. dumerilii embryos; OH-DCQ concentration 35 mg L-1): 84.1584% and 85.7144%
- Normal development (P. dumerilii embryos; OH-DCQ concentration 40 mg L-1): 83.0189% and 85.5855%
- Normal development (P. dumerilii embryos; OH-DCQ concentration 48 mg L-1): 79.8164% and 77.4194%
- Normal development (P. dumerilii embryos; OH-DCQ concentration 65 mg L-1): 67.0813% and 64.9575%
- Normal development (P. dumerilii embryos; OH-DCQ concentration 85 mg L-1): 48.8761% and 42.0329%
- Degradation time at which concentration reached its maximum ([1]; 10 mg L−1, pH 8.2): 5.5 h
- Concentration ([1]; degradation time 0 h): 388.2 ng/mL
- Concentration ([1]; degradation time 0.25 h): 1568 ng/mL
- Concentration ([1]; degradation time 0.5 h): 2136 ng/mL
- Concentration ([1]; degradation time 0.75 h): 2523 ng/mL
- Concentration ([1]; degradation time 1 h): 2564 ng/mL
- Concentration ([1]; degradation time 1.25 h): 2851 ng/mL
- Concentration ([1]; degradation time 1.5 h): 2913 ng/mL
- Concentration ([1]; degradation time 1.75 h): 3134 ng/mL
- Concentration ([1]; degradation time 2 h): 3157 ng/mL
- Concentration ([1]; degradation time 2.25 h): 3402 ng/mL
- Concentration ([1]; degradation time 2.5 h): 3558 ng/mL
- Concentration ([1]; degradation time 2.75 h): 3742 ng/mL
- Concentration ([1]; degradation time 3 h): 3837 ng/mL
- Concentration ([1]; degradation time 3.25 h): 4027 ng/mL
- Concentration ([1]; degradation time 3.5 h): 4055 ng/mL
- Concentration ([1]; degradation time 3.75 h): 4030 ng/mL
- Concentration ([1]; degradation time 4 h): 4244 ng/mL
- Concentration ([1]; degradation time 4.5 h): 4217 ng/mL
- Concentration ([1]; degradation time 5 h): 4099.6 ng/mL
- Concentration ([1]; degradation time 5.5 h): 4364 ng/mL
- Concentration ([1]; degradation time 6 h): 4268 ng/mL
- Concentration ([1]; degradation time 8 h): 4192.4 ng/mL
- Concentration ([1]; degradation time 10 h): 3830 ng/mL
- Concentration ([1]; degradation time 12 h): 3886 ng/mL
- Concentration ([1]; degradation time 14 h): 3910 ng/mL
- Concentration ([1]; degradation time 16 h): 3929.8 ng/mL
- Concentration ([1]; degradation time 18 h): 3711 ng/mL
- Concentration ([1]; degradation time 20 h): 3724 ng/mL
- Concentration ([1]; degradation time 24 h): 3646 ng/mL
- Peak area ([1]; pH 8.2, darkness, 0 h): 2432
- Peak area ([1]; pH 8.2, darkness, 0.25 h): 9916
- Peak area ([1]; pH 8.2, darkness, 0.5 h): 13509
- Peak area ([1]; pH 8.2, darkness, 0.75 h): 15961
- Peak area ([1]; pH 8.2, darkness, 1 h): 16217
- Peak area ([1]; pH 8.2, darkness, 1.25 h): 18034
- Peak area ([1]; pH 8.2, darkness, 1.5 h): 18424
- Peak area ([1]; pH 8.2, darkness, 1.75 h): 19823
- Peak area ([1]; pH 8.2, darkness, 2 h): 19969
- Peak area ([1]; pH 8.2, darkness, 2.25 h): 21520
- Peak area ([1]; pH 8.2, darkness, 2.5 h): 22505
- Peak area ([1]; pH 8.2, darkness, 2.75 h): 23670
- Peak area ([1]; pH 8.2, darkness, 3 h): 24273
- Peak area ([1]; pH 8.2, darkness, 3.25 h): 25472
- Peak area ([1]; pH 8.2, darkness, 3.5 h): 25650
- Peak area ([1]; pH 8.2, darkness, 3.75 h): 25488
- Peak area ([1]; pH 8.2, darkness, 4 h): 26847
- Peak area ([1]; pH 8.2, darkness, 4.5 h): 26676
- Peak area ([1]; pH 8.2, darkness, 5 h): 25931
- Peak area ([1]; pH 8.2, darkness, 5.5 h): 27605
- Peak area ([1]; pH 8.2, darkness, 6 h): 26995
- Peak area ([1]; pH 8.2, darkness, 8 h): 26518
- Peak area ([1]; pH 8.2, darkness, 10 h): 24223
- Peak area ([1]; pH 8.2, darkness, 12 h): 24578
- Peak area ([1]; pH 8.2, darkness, 14 h): 24730
- Peak area ([1]; pH 8.2, darkness, 16 h): 24857
- Peak area ([1]; pH 8.2, darkness, 18 h): 23474
- Peak area ([1]; pH 8.2, darkness, 20 h): 23553
- Peak area ([1]; pH 8.2, darkness, 24 h): 23064
- Maximum concentration as share of initial molar concentration of 2,6-DCQ ([1]; pH 8.2, darkness): 41%
